# Test results: US9265837B1, “5α-androstane-3β,5,6β-triol injection and preparation method therefor” (Guangzhou Cellprotek Pharmaceuticals Ltd., priority 2010, dated 2016)
# Columns and labels:
# [1] = Solubility in water; format: physicochemical; settings: background statement, no test described
# [2] = Acute toxicity (LD50), i.v. via tail vein, one-week observation; settings: both sexes, mouse, in vivo, iv, Kunming mice, YC-6 injection of Example 3 (20 mg/ml)
# Protocol: Kunming mice were caged by weight and randomly divided into 5 groups. Each group had 10 mice, with half males and half females. The YC-6 injection 10 prepared in Example 3 (20 mg/ml) was i.v. administrated via tail vein at different doses. All mice were sacrificed after one-week observation. The toxic reaction and number of death of the animals were recorded every day. LD50 and 95% confidence were calculated.
compound,measurement,setting,value
"C[C@@]12CCC[C@H]1[C@@H]1C[C@@H](O)[C@@]3(O)C[C@@H](O)CC[C@]3(C)[C@H]1CC2 [YC-6, 5α-androstane-3β,5,6β-triol]",Solubility in water,[1],low solubility in water
same,LD50 at 1 week,[2],> 400 mg/kg
